In brackets after ≈: the same amount, converted by molar mass.
Legend:
[1] = target: Phosphatidylinositol 4,5-bisphosphate 3-kinase catalytic subunit alpha isoform (Homo sapiens, UniProt P42336)
Description: Inhibition of PI3Kalpha (unknown origin) using biotin-PIP3 as substrate preincubated for 15 mins followed by substrate addition and measured after 60 mins by fluorescence polarization assay

[2] = target: T1, Phosphatidylinositol 4,5-bisphosphate 3-kinase catalytic subunit delta isoform (Homo sapiens, UniProt O00329)
T1 sequence (O00329 whole entry): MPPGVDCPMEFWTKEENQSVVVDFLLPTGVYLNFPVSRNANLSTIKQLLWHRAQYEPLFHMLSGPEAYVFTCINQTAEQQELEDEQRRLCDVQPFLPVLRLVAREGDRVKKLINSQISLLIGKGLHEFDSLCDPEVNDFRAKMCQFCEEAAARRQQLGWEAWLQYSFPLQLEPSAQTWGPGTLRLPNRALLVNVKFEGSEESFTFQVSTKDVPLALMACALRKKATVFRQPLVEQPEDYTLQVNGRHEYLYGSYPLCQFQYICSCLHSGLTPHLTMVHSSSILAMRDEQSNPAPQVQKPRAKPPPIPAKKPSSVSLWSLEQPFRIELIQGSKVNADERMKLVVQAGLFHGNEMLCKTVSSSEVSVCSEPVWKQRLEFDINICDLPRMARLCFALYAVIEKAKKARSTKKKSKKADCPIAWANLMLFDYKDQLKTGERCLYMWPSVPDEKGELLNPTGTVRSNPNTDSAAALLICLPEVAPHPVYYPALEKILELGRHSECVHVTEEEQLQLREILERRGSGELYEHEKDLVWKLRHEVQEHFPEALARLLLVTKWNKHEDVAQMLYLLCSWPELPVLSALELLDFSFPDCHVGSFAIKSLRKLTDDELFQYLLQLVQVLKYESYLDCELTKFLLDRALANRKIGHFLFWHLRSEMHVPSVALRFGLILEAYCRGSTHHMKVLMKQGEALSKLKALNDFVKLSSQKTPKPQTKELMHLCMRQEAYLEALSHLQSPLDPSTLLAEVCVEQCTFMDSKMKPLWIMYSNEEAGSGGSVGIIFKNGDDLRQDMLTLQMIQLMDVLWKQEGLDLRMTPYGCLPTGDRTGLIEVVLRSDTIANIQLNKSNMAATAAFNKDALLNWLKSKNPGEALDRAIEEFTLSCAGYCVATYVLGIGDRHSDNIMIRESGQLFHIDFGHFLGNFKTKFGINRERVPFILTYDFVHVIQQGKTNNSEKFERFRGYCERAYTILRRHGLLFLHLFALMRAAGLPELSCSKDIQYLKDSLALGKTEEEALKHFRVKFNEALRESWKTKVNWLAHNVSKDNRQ
Description: Inhibition of PI3Kdelta (unknown origin) using biotin-PIP3 as substrate preincubated for 15 mins followed by substrate addition and measured after 60 mins by fluorescence polarization assay

[3] = Solubility of compound by CLND method; assay type: physicochemical
Albumin = Albumin (Homo sapiens, UniProt P02768); assay: Binding affinity to human serum albumin by HPLC analysis; assay type: ADME; conditions: isolated protein
Sequence of Albumin (P02768 whole entry, canonical isoform): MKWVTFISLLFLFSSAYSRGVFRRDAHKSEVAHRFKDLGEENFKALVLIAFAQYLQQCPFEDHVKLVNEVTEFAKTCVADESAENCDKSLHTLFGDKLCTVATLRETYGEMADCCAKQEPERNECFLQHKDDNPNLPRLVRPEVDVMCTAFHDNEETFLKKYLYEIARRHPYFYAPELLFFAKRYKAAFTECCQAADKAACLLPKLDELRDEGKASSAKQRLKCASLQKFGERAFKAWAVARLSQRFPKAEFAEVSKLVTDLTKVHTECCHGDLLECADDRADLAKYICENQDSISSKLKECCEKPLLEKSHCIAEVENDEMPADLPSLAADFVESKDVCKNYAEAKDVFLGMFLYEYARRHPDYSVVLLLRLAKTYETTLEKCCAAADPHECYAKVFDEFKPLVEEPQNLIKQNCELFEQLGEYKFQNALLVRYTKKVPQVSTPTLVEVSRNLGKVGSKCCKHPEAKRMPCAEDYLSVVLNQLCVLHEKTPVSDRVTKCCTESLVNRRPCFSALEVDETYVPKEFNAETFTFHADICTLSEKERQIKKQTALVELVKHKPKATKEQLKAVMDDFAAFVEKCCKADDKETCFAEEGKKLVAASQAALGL

[4] = target: Phosphatidylinositol 4,5-bisphosphate 3-kinase catalytic subunit gamma isoform (Homo sapiens, UniProt P48736)
Sequence of Phosphatidylinositol 4,5-bisphosphate 3-kinase catalytic subunit gamma isoform (P48736 whole entry, canonical isoform): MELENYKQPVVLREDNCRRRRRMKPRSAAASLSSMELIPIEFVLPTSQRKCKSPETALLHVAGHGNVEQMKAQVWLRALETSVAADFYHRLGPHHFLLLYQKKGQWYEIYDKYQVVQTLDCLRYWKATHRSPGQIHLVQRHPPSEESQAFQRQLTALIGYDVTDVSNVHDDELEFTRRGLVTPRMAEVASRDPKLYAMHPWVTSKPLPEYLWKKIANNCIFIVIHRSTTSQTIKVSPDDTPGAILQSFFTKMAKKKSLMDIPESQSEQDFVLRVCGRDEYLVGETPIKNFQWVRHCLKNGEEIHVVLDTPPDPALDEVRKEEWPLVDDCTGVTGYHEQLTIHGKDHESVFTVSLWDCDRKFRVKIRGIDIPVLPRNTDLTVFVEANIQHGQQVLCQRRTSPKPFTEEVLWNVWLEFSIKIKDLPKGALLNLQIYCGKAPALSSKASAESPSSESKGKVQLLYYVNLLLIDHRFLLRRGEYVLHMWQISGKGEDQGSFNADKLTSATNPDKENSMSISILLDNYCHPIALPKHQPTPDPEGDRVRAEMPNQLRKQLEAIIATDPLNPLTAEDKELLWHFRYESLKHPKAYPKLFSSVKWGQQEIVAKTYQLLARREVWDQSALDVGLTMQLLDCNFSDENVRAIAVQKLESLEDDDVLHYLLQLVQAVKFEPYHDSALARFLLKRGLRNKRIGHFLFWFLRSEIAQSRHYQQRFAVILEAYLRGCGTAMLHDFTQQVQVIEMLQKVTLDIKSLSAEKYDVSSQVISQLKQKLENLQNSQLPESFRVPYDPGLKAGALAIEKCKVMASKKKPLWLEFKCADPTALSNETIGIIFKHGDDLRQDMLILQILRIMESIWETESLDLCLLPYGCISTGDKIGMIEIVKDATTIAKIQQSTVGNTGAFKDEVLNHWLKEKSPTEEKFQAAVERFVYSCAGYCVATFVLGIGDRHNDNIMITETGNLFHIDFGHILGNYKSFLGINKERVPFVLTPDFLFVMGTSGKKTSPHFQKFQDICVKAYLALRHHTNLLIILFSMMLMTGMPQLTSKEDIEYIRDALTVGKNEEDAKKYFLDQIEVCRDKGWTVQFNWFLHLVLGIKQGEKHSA
Description: Inhibition of PI3Kgamma (unknown origin) using biotin-PIP3 as substrate preincubated for 15 mins followed by substrate addition and measured after 60 mins by fluorescence polarization assay

[5] = Lipophilicity, logD of compound at pH 7.4 by HPLC-MS analysis; conditions: buffer
[6] = target: Phosphatidylinositol 4,5-bisphosphate 3-kinase catalytic subunit beta isoform (Homo sapiens, UniProt P42338); assay: Inhibition of PI3Kbeta (unknown origin) using biotin-PIP3 as substrate preincubated for 15 mins followed by substrate addition and measured after 60 mins by fluorescence polarization assay
Sequence of Phosphatidylinositol 4,5-bisphosphate 3-kinase catalytic subunit beta isoform (P42338 whole entry, canonical isoform): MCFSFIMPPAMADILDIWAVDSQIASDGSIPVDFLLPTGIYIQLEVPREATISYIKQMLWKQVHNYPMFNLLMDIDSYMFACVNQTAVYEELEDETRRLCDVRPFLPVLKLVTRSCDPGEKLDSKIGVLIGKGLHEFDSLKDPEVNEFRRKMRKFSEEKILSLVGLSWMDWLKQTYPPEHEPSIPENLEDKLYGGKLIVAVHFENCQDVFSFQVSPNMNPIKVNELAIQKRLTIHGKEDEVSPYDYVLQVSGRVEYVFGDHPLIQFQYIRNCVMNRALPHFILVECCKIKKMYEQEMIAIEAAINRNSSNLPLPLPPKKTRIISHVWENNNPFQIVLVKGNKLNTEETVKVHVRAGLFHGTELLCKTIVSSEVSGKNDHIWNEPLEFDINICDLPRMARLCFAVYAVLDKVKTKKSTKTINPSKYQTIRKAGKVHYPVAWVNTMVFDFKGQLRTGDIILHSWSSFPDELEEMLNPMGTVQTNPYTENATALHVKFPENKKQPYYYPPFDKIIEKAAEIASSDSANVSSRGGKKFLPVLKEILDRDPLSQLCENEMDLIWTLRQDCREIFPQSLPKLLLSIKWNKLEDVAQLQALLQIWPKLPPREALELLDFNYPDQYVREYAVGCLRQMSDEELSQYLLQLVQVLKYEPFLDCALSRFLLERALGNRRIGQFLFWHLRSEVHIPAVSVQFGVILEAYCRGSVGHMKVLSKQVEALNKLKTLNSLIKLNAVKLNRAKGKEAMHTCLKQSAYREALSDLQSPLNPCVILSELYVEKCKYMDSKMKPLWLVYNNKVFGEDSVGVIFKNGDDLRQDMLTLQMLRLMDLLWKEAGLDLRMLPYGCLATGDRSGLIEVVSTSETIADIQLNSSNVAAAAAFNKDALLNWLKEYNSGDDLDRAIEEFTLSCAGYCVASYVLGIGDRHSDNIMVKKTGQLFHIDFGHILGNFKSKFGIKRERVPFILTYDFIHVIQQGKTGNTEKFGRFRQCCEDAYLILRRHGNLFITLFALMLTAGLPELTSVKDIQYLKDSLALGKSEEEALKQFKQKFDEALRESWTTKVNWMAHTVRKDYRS

Sequence of Phosphatidylinositol 4,5-bisphosphate 3-kinase catalytic subunit alpha isoform (P42336 whole entry, canonical isoform): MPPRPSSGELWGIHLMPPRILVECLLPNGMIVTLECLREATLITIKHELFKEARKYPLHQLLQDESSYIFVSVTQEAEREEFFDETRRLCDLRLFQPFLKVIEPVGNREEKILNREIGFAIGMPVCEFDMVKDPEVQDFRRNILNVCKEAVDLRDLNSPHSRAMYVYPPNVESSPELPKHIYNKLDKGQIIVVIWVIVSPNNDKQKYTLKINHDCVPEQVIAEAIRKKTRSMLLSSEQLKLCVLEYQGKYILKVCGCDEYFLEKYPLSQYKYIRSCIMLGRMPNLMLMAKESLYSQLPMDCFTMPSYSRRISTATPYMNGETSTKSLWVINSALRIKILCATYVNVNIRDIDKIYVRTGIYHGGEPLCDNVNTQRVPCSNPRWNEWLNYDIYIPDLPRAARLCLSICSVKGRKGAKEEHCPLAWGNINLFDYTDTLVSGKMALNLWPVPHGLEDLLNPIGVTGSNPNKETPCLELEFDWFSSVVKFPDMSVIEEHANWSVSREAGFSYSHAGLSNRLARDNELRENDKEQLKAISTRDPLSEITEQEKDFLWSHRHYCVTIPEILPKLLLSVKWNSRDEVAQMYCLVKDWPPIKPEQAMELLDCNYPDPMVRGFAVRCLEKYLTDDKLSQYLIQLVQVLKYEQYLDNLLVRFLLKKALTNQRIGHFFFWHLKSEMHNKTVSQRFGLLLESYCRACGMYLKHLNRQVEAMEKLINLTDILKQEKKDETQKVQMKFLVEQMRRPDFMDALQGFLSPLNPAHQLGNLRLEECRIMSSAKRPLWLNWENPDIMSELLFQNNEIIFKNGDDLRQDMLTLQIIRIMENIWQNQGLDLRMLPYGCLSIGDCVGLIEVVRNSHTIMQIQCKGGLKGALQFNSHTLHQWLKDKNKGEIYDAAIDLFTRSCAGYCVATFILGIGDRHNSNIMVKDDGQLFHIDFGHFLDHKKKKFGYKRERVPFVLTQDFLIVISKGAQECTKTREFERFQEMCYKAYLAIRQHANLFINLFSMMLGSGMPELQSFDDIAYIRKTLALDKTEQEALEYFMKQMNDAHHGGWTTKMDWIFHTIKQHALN

| SMILES | IC50 [1] [nM] | IC50 [2] [nM] | solubility kinetic [3] [µM] | Activity (Albumin) [%] | IC50 [4] [nM] | logD [5] | IC50 [6] [nM] |
| --- | --- | --- | --- | --- | --- | --- | --- |
| CN(C1CCN(Cc2cc3nc(-c4cnc(N)nc4)nc(N4CCOCC4)c3s2)CC1)S(C)(=O)=O | 15.8 | 7.94 | 118 (≈ 61.2 µg/mL) | 87.8 | 25.1 | 3.3 | 251 |
| COCC(=O)N(C)C1CCN(Cc2cc3nc(-c4cccc5[nH]ccc45)nc(N4CCOCC4)c3s2)CC1 | 10000 | 12.6 | 238 (≈ 127 µg/mL) | 94.3 | – | 4.6 | 1000 |
| CC(=O)N(C)C1CCN(Cc2cc3nc(-c4cccc5[nH]ccc45)nc(N4CCOCC4)c3s2)CC1 | 3160 | 12.6 | – | 94.5 | – | 4.4 | 2000 |
| COCC(=O)N(C)C1CCCN(Cc2cc3nc(-c4cnc(N)nc4)nc(N4CCOCC4)c3s2)C1 (racemic) | 100 | 50.1 | – | – | 126 | 2.8 | 1580 |
| CNC(=O)NC1CCCN(Cc2cc3nc(-c4cccc5[nH]ccc45)nc(N4CCOCC4)c3s2)C1 (racemic) | 3980 | 126 | – | – | 2510 | 4.1 | 2510 |
| COCC(=O)N(C)C1CCN(Cc2cc3nc(-c4cccc5[nH]ncc45)nc(N4CCOCC4)c3s2)C1 (racemic) | 631 | 79.4 | – | – | 1000 | 3.8 | 5010 |
| CC(=O)N(C)C1CCCN(Cc2cc3nc(-c4cnc(N)nc4)nc(N4CCOCC4)c3s2)C1 (racemic) | 63.1 | 15.8 | – | – | 100 | 3.1 | 2000 |
| CS(=O)(=O)NC1CCCN(Cc2cc3nc(-c4cccc5[nH]ncc45)nc(N4CCOCC4)c3s2)C1 (racemic) | 501 | 50.1 | – | – | 1580 | 4.3 | 7940 |
| CC(=O)NC1CCCN(Cc2cc3nc(-c4cnc(N)nc4)nc(N4CCOCC4)c3s2)C1 (racemic) | 126 | 79.4 | – | – | 158 | 2.5 | 2000 |
| CC(=O)NC1CCCN(Cc2cc3nc(-c4cccc5[nH]ncc45)nc(N4CCOCC4)c3s2)C1 (racemic) | 251 | 79.4 | – | – | 1260 | 4 | 6310 |
| CS(=O)(=O)NC1CCCN(Cc2cc3nc(-c4cccc5[nH]ccc45)nc(N4CCOCC4)c3s2)C1 (racemic) | 1580 | 25.1 | – | – | 1000 | 5 | 1260 |
| COCC(=O)N(C)C1CCCN(Cc2cc3nc(-c4cccc5[nH]ncc45)nc(N4CCOCC4)c3s2)C1 (racemic) | 794 | 126 | – | – | 3160 | 4.3 | 6310 |
| CS(=O)(=O)NC1CCCN(Cc2cc3nc(-c4cnc(N)nc4)nc(N4CCOCC4)c3s2)C1 (racemic) | 20 | 15.8 | – | – | 39.8 | 3.1 | 316 |
| CN(C1CCN(Cc2cc3nc(-c4cccc5[nH]ccc45)nc(N4CCOCC4)c3s2)C1)S(C)(=O)=O (racemic) | 631 | 10 | – | – | 501 | 5.1 | 501 |
| CC(=O)N(C)C1CCCN(Cc2cc3nc(-c4cccc5[nH]ncc45)nc(N4CCOCC4)c3s2)C1 (racemic) | 251 | 39.8 | – | – | 501 | 4.5 | 2000 |
| CNC(=O)N(C)C1CCCN(Cc2cc3nc(-c4cnc(N)nc4)nc(N4CCOCC4)c3s2)C1 (racemic) | 79.4 | 79.4 | – | – | 200 | 2.9 | 2000 |
| CC(=O)N(C)C1CCN(Cc2cc3nc(-c4cccc5[nH]ccc45)nc(N4CCOCC4)c3s2)C1 (racemic) | 794 | 6.31 | 251 (≈ 123 µg/mL) | 94.4 | 631 | 4.5 | 501 |
| CN(C1CCCN(Cc2cc3nc(-c4cccc5[nH]ncc45)nc(N4CCOCC4)c3s2)C1)S(C)(=O)=O (racemic) | 200 | 20 | – | – | 794 | 4.9 | 2510 |
| COCC(=O)NC1CCCN(Cc2cc3nc(-c4cccc5[nH]ncc45)nc(N4CCOCC4)c3s2)C1 (racemic) | 398 | 100 | – | – | 2510 | 4.5 | 6310 |
| CNC(=O)NC1CCCN(Cc2cc3nc(-c4cnc(N)nc4)nc(N4CCOCC4)c3s2)C1 (racemic) | 79.4 | 126 | – | – | 158 | 2.6 | 2000 |
| CNC(=O)NC1CCCN(Cc2cc3nc(-c4cccc5[nH]ncc45)nc(N4CCOCC4)c3s2)C1 (racemic) | 316 | 100 | – | – | 3160 | 3.6 | 7940 |

More lines, now with the values ahead:

| IC50 [1] [nM] | IC50 [2] [nM] | solubility kinetic [3] [µM] | Activity (Albumin) [%] | IC50 [4] [nM] | logD [5] | IC50 [6] [nM] | SMILES |
| --- | --- | --- | --- | --- | --- | --- | --- |
| 2510 | 79.4 | – | – | 2000 | 5 | 6310 | COCC(=O)NC1CCCN(Cc2cc3nc(-c4cccc5[nH]ccc45)nc(N4CCOCC4)c3s2)C1 (racemic) |
| 501 | 316 | – | – | 631 | 3 | 10000 | COCC(=O)NC1CCCN(Cc2cc3nc(-c4cnc(N)nc4)nc(N4CCOCC4)c3s2)C1 (racemic) |
| 3160 | 126 | – | – | 6310 | 4.5 | 10000 | CNC(=O)N(C)C1CCCN(Cc2cc3nc(-c4cccc5[nH]ccc45)nc(N4CCOCC4)c3s2)C1 (racemic) |
| 39.8 | 5.01 | – | – | 25.1 | 3.5 | 1000 | CN(C1CCCN(Cc2cc3nc(-c4cnc(N)nc4)nc(N4CCOCC4)c3s2)C1)S(C)(=O)=O (racemic) |
| 20 | 12.6 | – | – | 39.8 | 2.8 | 631 | CC(=O)N(C)C1CCN(Cc2cc3nc(-c4cnc(N)nc4)nc(N4CCOCC4)c3s2)C1 (racemic) |
| 3160 | 20 | 85 (≈ 45.4 µg/mL) | 95.2 | 2000 | 4.8 | 3160 | COCC(=O)N(C)C1CCCN(Cc2cc3nc(-c4cccc5[nH]ccc45)nc(N4CCOCC4)c3s2)C1 (racemic) |
| 1580 | 25.1 | – | – | 2510 | 5 | 2510 | CC(=O)N(C)C1CCCN(Cc2cc3nc(-c4cccc5[nH]ccc45)nc(N4CCOCC4)c3s2)C1 (racemic) |
| 7.94 | 6.31 | – | – | 12.6 | 3.1 | 251 | CN(C1CCN(Cc2cc3nc(-c4cnc(N)nc4)nc(N4CCOCC4)c3s2)C1)S(C)(=O)=O (racemic) |
| 126 | 25.1 | – | – | 398 | 4.6 | 1580 | CN(C1CCN(Cc2cc3nc(-c4cccc5[nH]ncc45)nc(N4CCOCC4)c3s2)C1)S(C)(=O)=O (racemic) |
| 3980 | 50.1 | – | – | 2510 | 4.5 | 2510 | CC(=O)NC1CCCN(Cc2cc3nc(-c4cccc5[nH]ccc45)nc(N4CCOCC4)c3s2)C1 (racemic) |
| 200 | 20 | – | – | 1000 | 3.6 | 1000 | CC(=O)N(C)C1CCN(Cc2cc3nc(-c4cccc5[nH]ncc45)nc(N4CCOCC4)c3s2)C1 (racemic) |
| 3980 | 10 | 179 (≈ 93.2 µg/mL) | 94.1 | 1000 | – | 2510 | COCC(=O)N(C)C1CCN(Cc2cc3nc(-c4cccc5[nH]ccc45)nc(N4CCOCC4)c3s2)C1 (racemic) |
| 794 | 6.31 | – | 95.6 | 501 | 5.5 | 1580 | CN(C1CCCN(Cc2cc3nc(-c4cccc5[nH]ccc45)nc(N4CCOCC4)c3s2)C1)S(C)(=O)=O (racemic) |

Reference: ChEMBL document CHEMBL4414631 (J Med Chem, 2019)
